Results published in patent US4839387A, “Derivative of thiazolidine-4-carboxylic acid, its preparation and pharmaceutical compositions containing it” (Poli Industria Chimica S.P.A., priority 1987, dated 1989).
Non-standard residues stand in square brackets, D forms with d. Residues, ends and D or L forms follow the SMILES beside them. pGlu = O=C1CC[C@@H](C(=O)O)N1; Thz = O=C(O)[C@@H]1CSCN1

Tests used:
[1] = system: T-lymphocyte response to concanavaline A; experiment: Test of blastization with ConA (3H-thymidine incorporation) after in vivo treatment; set-up: species or system rat; conditions: for 3H-thymidine cpm/well: ConA 2.5 μg/ml; for 3H-thymidine increase %: versus untreated
Protocol: (§1) For this purpose, male adult rats (5-6 months old) were used as animal model with normal immuno-competent system, and old rats (17-18 months) as a paraphysiological immunodeficiency model.
(§2) The PGTCA treatment has been carried out i.p. at the dose of 1, 10 or 50 mg/kg twice a day for 4 weeks. The used immunological tests were the delayed-type hypersensitivity induced by dinitrochlorobenzene (DNCB) and the T-lymphocyte response to concanavaline A (ConA).
After 4 weeks of PGTCA treatment at the doses of 1,10 and 50 mg/kg, the animals were sacrificed and the spleen was removed in sterile conditions. The isolation of lymphocytes was obtained by an isolimph gradient. The lymphocytes were incubated in micro-walls, at the concentration of 1×10^6 cells/ml, in the presence of ConA (2.5 μg/ml), for 48 hours. The mitogen activity was evaluated by incorporation of ^3 H-thymidine for 16 hours.

[2] = system: old rat; experiment: Neurocerebral performances in the old rat; type: in vivo; conditions: 10 mg/kg and even more at 50 mg/kg
[3] = system: T cells forming rosettes with sheep red blood cells; experiment: T-cells forming rosette with sheep red blood cells; type: in vivo, mouse; conditions: for No. rosette/10^6 spleen cells Var. %: versus controls
Protocol: In the mouse, a cytotoxic-kind of hypersensivity reaction, evaluated in the test of T cells forming rosettes with sheep red blood cells, was used (S.D. Wilson Immunology, 1971, 21, 233). […]
CD-I male mice weighing about 25 g are treated with PGTCA for 8 days. After 4 days from the start of the treatment the animals were immunized with 5×10^8 sheep red blood cells in 0.2 ml of PBS i.p. The rosette test was carried out 6 days after the immunization. The mice were killed and the spleen was removed and placed in ice cold Hank solution, triturated, homogenized and gauze filtered.
6×10^7 /ml of spleen cells +100 /μl of red blood cell suspension 3×10^8 /μul were mixed in 0.8 ml of Hank and stirred for 1 min.
The samples were incubated for 24 h at 4° C. without stirring and then, after stirring, the number of rosette forming cells/ml was determined by the Burker apparatus.

[4] = system: Male Wistar rats; experiment: Paracetamol intoxication in the rat, test after single i.p. administration; type: in vivo; conditions: for Death rate % / % distribution of liver impairment degrees: degree 0 / % distribution of liver impairment degrees: degree 1 / % distribution of liver impairment degrees: degree 2 / % distribution of liver impairment degrees: degree 3: single administration; for Death rate %: 48 hours after paracetamol 5000 mg/kg oral; for % distribution of liver impairment degrees: degree 0: degree 0 = normal histologic examination; for % distribution of liver impairment degrees: degree 1: degree I = centrolobular necrosis less than 25% of the lobule; for % distribution of liver impairment degrees: degree 2: degree II = extended centrolobular necrosis; for % distribution of liver impairment degrees: degree 3: degree III = massive necrosis
Text: (§3) Male Wistar rats, mean weight of 150±10 g were used, which, after suitable housing, were subjected to the test:
(a) Test after single i.p. administration
The animals were divided in 7 groups, comprising 20 animals each, according to the following scheme:
II group: PGTCA 4.1 μmoles/kg i.p.
III group: PGTCA 41 μmoles/kg i.p.
IV group: PGTCA 205 μmoles/kg i.p.
V group: PGA 4.1 μmoles/kg +TCA 4.1 μmoles/kg
VI group: PGA 41 μmoles/kg +TCA 41 μmoles/kg
VII group: PGA 205 umoles/kg +TCA 205 μmoles/kg.
The animals of each group, fasting since 12 hours, were treated with paracetamol at the dose of 5000 mg/kg by the oral route. The different pharmacological treatments were carried out contemporaneously with the paracetamol administration. After 48 hours from treatment, the death-rate was assessed in the various experimental groups. The liver was taken from the surviving animals, sacrificed by decapitation, and from the dead animals and an histopathologic examination was carried out.
The degree of liver impairment has been evaluated as: degree O: normal histologic examination degree I: centrolobular necrosis extended to less than 25% of the lobule degree II: extended centrolobular necrosis, with lesions bridging adjacent centrolobular areas degree III: massive necrosis.
(§4) In order to evaluate the lesion degree, 6 different sections were taken from each organ.

[5] = system: Swiss male mice; experiment: Effects on the consequences of exposure to ionizing radiation; type: in vivo, mouse; conditions: for Death-rate % 10 gg: 10 days after 700 r of x rays; for Death-rate % 15 gg: 15 days after 700 r of x rays
Protocol: Swiss male mice weighing 30±5 g, divided in 7 groups of 20 animals each, were used according to the above reported schedule.
The pharmacological treatments were carried out for 15 days before the irradiation and prosecuted up to the end of the experiment. The control animals received the vehicle alone.
At the 15th day, all the animals were irradiated (Philip Metalix® apparatus, 180 KV, 15 mA, with Cu filter 0.5 mm +AI mm) with the administration of 700 r of x rays.
All the animals were checked daily, for 15 days after irradiation. The radio-protection degree was calculated as survival % at 10 and 15 days.

[6] = system: Male Wistar rats; experiment: Paracetamol intoxication in the rat, test after repeated i.p. administration; type: in vivo; conditions: for Death rate %: repeated administration (daily for 8 days and on), 48 hours after paracetamol 5000 mg/kg per os; for % distribution of liver impairment degrees: degree 0 / % distribution of liver impairment degrees: degree 1 / % distribution of liver impairment degrees: degree 2 / % distribution of liver impairment degrees: degree 3: repeated administration; for % distribution of liver impairment degrees: degree 0: degree 0 = normal histologic examination; for % distribution of liver impairment degrees: degree 1: degree I = centrolobular necrosis less than 25% of the lobule; for % distribution of liver impairment degrees: degree 2: degree II = extended centrolobular necrosis; for % distribution of liver impairment degrees: degree 3: degree III = massive necrosis
Text: as §3
The degree of liver impairment has been evaluated as: degree O: normal histologic examination […]
degree II: extended centrolobular necrosis, with lesions bridging adjacent centrolobular areas degree III: massive necrosis.
as §4
(b) Test after repeated i.p. administration
The same treatment schedule as in (a) was used.
The animals of groups II-VII were treated daily for 8 days. At the 8th day, contemporaneously to the various considered pharmacological treatments, the animals of the 7 groups (fasting since 12 hours) were administered with paracetamol (5000 mg/kg per os).
After 48 hours from the paracetamol administration, the surviving animals were examined and the liver was subjected to the histopathologic examination.

[7] = system: male rats; experiment: Delayed-type hypersensitivity induced by dinitrochlorobenzene (DNCB); type: in vivo, rat
Protocol: as §1, §2
After 4 weeks of PGTCA pre-treatment (or vehicle), 0.02 ml of DNCB (solubilized in acetone at the concentration of 200 mg/ml) was applied to each animal (5 rats per group) on the cutis of the back, on an area of about 1 cm^2. The subsequent inflammatory reaction was evaluated by measuring the diameter of the reddish area by means of a thickness gauge from day 1 to day 7.
During this period the animals were constantly treated.

[8] = system: male rat; experiment: Sexual behaviour of the male rat; type: in vivo; conditions: latencies and frequences of sexual acts
[9] = Mice not sensitized with red blood cells, 100 mg/kg b.i.d. i.p. for 8 days
[10] = at the highest and at the intermediate dose
[11] = PGTCA 4.1 microm/kg ip from 15 days before irradiation
[12] = PGTCA 41 microm/kg ip from 15 days before irradiation
[13] = PGTCA 205 microm/kg ip from 15 days before irradiation

What does the source list for `O=C1CC[C@@H](C(=O)N2CSC[C@H]2C(=O)O)N1` [PGTCA, 3-L-pyroglutamyl-Lthiazolidine-4-carboxylic acid] ([pGlu]-[Thz]-OH)?
3H-thymidine cpm/well ([1]; Adult rats (5-6 months), 1 mg/kg i.p. twice a day for 4 weeks): 31806 ± 970 cpm/well; 3H-thymidine increase % ([1]; Adult rats (5-6 months), 1 mg/kg): -2.1%; 3H-thymidine cpm/well ([1]; Adult rats (5-6 months), 10 mg/kg i.p. twice a day for 4 weeks): 34165 ± 540 cpm/well; 3H-thymidine increase % ([1]; Adult rats (5-6 months), 10 mg/kg): +5.1%; 3H-thymidine cpm/well ([1]; Adult rats (5-6 months), 50 mg/kg i.p. twice a day for 4 weeks): 35785 ± 240 cpm/well; 3H-thymidine increase % ([1]; Adult rats (5-6 months), 50 mg/kg): +10.1%; 3H-thymidine cpm/well ([1]; Old rats (17-18 months), 1 mg/kg i.p. twice a day for 4 weeks): 23553 ± 923 cpm/well; 3H-thymidine increase % ([1]; Old rats (17-18 months), 1 mg/kg): +1.6%; 3H-thymidine cpm/well ([1]; Old rats (17-18 months), 10 mg/kg i.p. twice a day for 4 weeks): 26012 ± 316 cpm/well; 3H-thymidine increase % ([1]; Old rats (17-18 months), 10 mg/kg): +12.3%; 3H-thymidine cpm/well ([1]; Old rats (17-18 months), 50 mg/kg i.p. twice a day for 4 weeks): 27540 ± 439 cpm/well; 3H-thymidine increase % ([1]; Old rats (17-18 months), 50 mg/kg): +18.9%; improving the neurocerebral performances [2]: active; No. rosette/10^6 spleen cells m ± E.S. [3, 9]: 790 ± 170 rosette/10^6 spleen cells; No. rosette/10^6 spleen cells Var. % [3, 9]: -12%; No. rosette/10^6 spleen cells Var. % ([3]; Mice sensitized with red blood cells, 100 mg/kg b.i.d. i.p. for 8 days): +41%; rosette number in comparison with the control ([3]; not sensitized animals): no significant change; rosette number in comparison with the control ([3]; sensitized animals): significant increase; liver impairment by an high dose of paracetamol ([4]; acute treatment, 205 μmoles/kg i.p. and 41 μmoles/kg i.p.): significant decrease; death-rate by paracetamol [4, 10]: reduces the death-rate; Death rate % ([4]; PGTCA 4.1 microm/kg ip): 85%; % distribution of liver impairment degrees: degree 0 ([4]; PGTCA 4.1 microm/kg ip): 0%; % distribution of liver impairment degrees: degree 1 ([4]; PGTCA 4.1 microm/kg ip): 0%; % distribution of liver impairment degrees: degree 2 ([4]; PGTCA 4.1 microm/kg ip): 10%; % distribution of liver impairment degrees: degree 3 ([4]; PGTCA 4.1 microm/kg ip): 90%; Death rate % ([4]; PGTCA 41 microm/kg ip): 75%; % distribution of liver impairment degrees: degree 0 ([4]; PGTCA 41 microm/kg ip): 0%; % distribution of liver impairment degrees: degree 1 ([4]; PGTCA 41 microm/kg ip): 5%; % distribution of liver impairment degrees: degree 2 ([4]; PGTCA 41 microm/kg ip): 20%; % distribution of liver impairment degrees: degree 3 ([4]; PGTCA 41 microm/kg ip): 75%; Death rate % ([4]; PGTCA 205 microm/kg ip): 60%; % distribution of liver impairment degrees: degree 0 ([4]; PGTCA 205 microm/kg ip): 5%; % distribution of liver impairment degrees: degree 1 ([4]; PGTCA 205 microm/kg ip): 15%; % distribution of liver impairment degrees: degree 2 ([4]; PGTCA 205 microm/kg ip): 15%; % distribution of liver impairment degrees: degree 3 ([4]; PGTCA 205 microm/kg ip): 65%; Death-rate % 10 gg [5, 11]: 20%; Death-rate % 10 gg [5, 12]: 15%; Death-rate % 10 gg [5, 13]: 10%; Death-rate % 15 gg [5, 11]: 45%; Death-rate % 15 gg [5, 12]: 20%; Death-rate % 15 gg [5, 13]: 15%; radioprotective activity [5, 10]: remarkable radioprotective activity; Death rate % ([6]; PGTCA 4.1 microm/kg ip): 85%; Death rate % ([6]; PGTCA 41 microm/kg ip): 70%; Death rate % ([6]; PGTCA 205 microm/kg ip): 50%; % distribution of liver impairment degrees: degree 0 ([6]; PGTCA 4.1 microm/kg ip): 0%; % distribution of liver impairment degrees: degree 1 ([6]; PGTCA 4.1 microm/kg ip): 0%; % distribution of liver impairment degrees: degree 2 ([6]; PGTCA 4.1 microm/kg ip): 10%; % distribution of liver impairment degrees: degree 3 ([6]; PGTCA 4.1 microm/kg ip): 90%; % distribution of liver impairment degrees: degree 0 ([6]; PGTCA 41 microm/kg ip): 0%; % distribution of liver impairment degrees: degree 1 ([6]; PGTCA 41 microm/kg ip): 0%; % distribution of liver impairment degrees: degree 2 ([6]; PGTCA 41 microm/kg ip): 35%; % distribution of liver impairment degrees: degree 3 ([6]; PGTCA 41 microm/kg ip): 65%; % distribution of liver impairment degrees: degree 0 ([6]; PGTCA 205 microm/kg ip): 5%; % distribution of liver impairment degrees: degree 1 ([6]; PGTCA 205 microm/kg ip): 15%; % distribution of liver impairment degrees: degree 2 ([6]; PGTCA 205 microm/kg ip): 25%; % distribution of liver impairment degrees: degree 3 ([6]; PGTCA 205 microm/kg ip): 55%; response to DNCB, evaluated as inflammation area ([7]; old animals, already at the dose of 10 mg/kg): maximum enhancing increase; response to DNCB, evaluated as inflammation area ([7]; young animals, only at the dose of 50 mg/kg): significant increase; sexual behaviour [8]: favourable influence
